According to patent US4309559A, “Sulphonamides useful as pesticides” (FBC Limited, priority 1977, dated 1982):
Like-named read-outs stand apart in the source and are kept apart here.

What was measured:
[1] = tested on: Linseed (Linum usitatissimum); assay: Soil incorporation (attaclay/sand dust), growth regulatory or herbicidal effects, linseed; format: in vivo; settings: 504 h, soil incorporation 130 ppm, 21 days, 0=no effect, 100=complete kill/suppression, read-out: growth regulatory or herbicidal effect score
Description: (§1) The compounds listed below were each formulated as an attaclay/sand dust and incorporated into John Innes I potting compost at a rate equivalent to 26 parts per million weight/volume of active ingredient to soil and placed in anodised aluminium pans, 19 cm long×9.5 cm wide×5.0 cm deep. This rate is approximately equivalent to a soil surface application of 11.2 kg active ingredient/hectare cultivated to a depth of 5 cm. Seeds of the species listed below were sown in the treated soil, watered and placed in a controlled environment room (22° C.; 65-85% relative humidity; 14 hours per day artificial illumination at 13,000 lux) for 21 days. The plants were then visually assessed for any growth regulatory or herbicidal effects. All differences from an untreated control were scored on a scale from 0-100, where 0 signifies no effect and 100 signifies complete kill.
(§2) The compounds listed below were tested according to the procedure of Examples 56-60 but at 130 parts per million weight/volume of active ingredient to soil. This rate is approximately equivalent to a soil surface application of 56 kg active ingredient per hectare cultivated to a depth of 5 cm.
(§3) The product of Example 95 was tested according to the procedure of Examples 56-60 but at 130 and 26 parts per million weight/volume. The results were as follows:
(§4) N-(2-oxopropyl)-2'-chloro-6'-methyl-methanesulphonanilide, formulated as an attaclay/sand dust, was incorporated in John Innes I potting compost at a rate equivalent to 130 parts per million weight/volume of active ingredient to soil and placed in anodised aluminium pans, 19 cm long×9.5 cm wide×5.0 cm deep. These rates are approximately equivalent to a soil surface application of 56 kg active ingredient per hectare cultivated to a depth of 5 cm. Seeds of Peas, Mustard, Linseed, Maize, Oats and Ryegrass were sown in the treated soil, watered and placed in a controlled environment room (22° C.; 65-85% relative humidity; 14 hours artificial illumination at 13000 lux) for 21 days.
(§5) The plants were then visually assessed for any growth regulatory or herbicidal effects. All differences from an untreated control were scored on a scale from 0-100, where 0 signifies no effect and 100 signifies complete suppression.

Mustard (Sinapis alba) [2] = assay: Post-emergence foliar spray, herbicidal/growth regulant response, mustard; format: in vivo; settings: 168 h, foliar spray 11.2 kg/ha, 7 days, 0=no effect, 100=complete kill, read-out: herbicidal or growth regulant response index
Procedure: (§6) Seeds of the plant species listed below were sown in anodised aluminium pans, 19 cm long×9.5 cm wide×5 cm deep, containing John Innes I potting compost. They were then watered and placed in a controlled environment room (22° C.; 65-85% relative humidity; 14 hours per day artificial illumination at 13,000 lux). Fourteen days after sowing, the seedlings received a foliar spray of a compound listed below, formulated as a solution in 1:1 by volume aqueous acetone. The concentration of active ingredient and volume of application were adjusted so as to be equivalent to a rate of 11.2 kg/ha in 450 liters per hectare. After seven days growth in the controlled environment room, the plants were visually assessed for any herbicidal or growth regulant response. All differences from the untreated control were scored according to an index where 0=no effect and 100=complete kill.
(§7) The product of Example 95 was tested according to the procedure of Examples 49-55.

Oat (Avena sativa) = assay: Post-emergence foliar spray, herbicidal/growth regulant response, oat; format: in vivo; settings: 168 h, foliar spray 11.2 kg/ha, 7 days, 0=no effect, 100=complete kill, read-out: herbicidal or growth regulant response index
Procedure: as §6, §7

Mustard (Sinapis alba) [3] = assay: Soil incorporation (attaclay/sand dust), growth regulatory or herbicidal effects, mustard; format: in vivo; settings: 504 h, soil incorporation 130 ppm, 21 days, 0=no effect, 100=complete kill/suppression, read-out: growth regulatory or herbicidal effect score
Description: as §1, §2, §3, §4, §5

Oats (Avena sativa) = assay: Soil incorporation (attaclay/sand dust), growth regulatory or herbicidal effects, oats; format: in vivo; settings: 504 h, soil incorporation 130 ppm, 21 days, 0=no effect, 100=complete kill/suppression, read-out: growth regulatory or herbicidal effect score
Description: as §1, §2, §3, §4, §5

[4] = tested on: Ryegrass (Lolium perenne); assay: Post-emergence foliar spray, herbicidal/growth regulant response, ryegrass; format: in vivo; settings: 168 h, foliar spray 11.2 kg/ha, 7 days, 0=no effect, 100=complete kill, read-out: herbicidal or growth regulant response index
Procedure: as §6, §7

[5] = tested on: Sugarbeet (Beta vulgaris); assay: Post-emergence foliar spray, herbicidal/growth regulant response, sugarbeet; format: in vivo; settings: 168 h, foliar spray 11.2 kg/ha, 7 days, 0=no effect, 100=complete kill, read-out: herbicidal or growth regulant response index
Procedure: as §6, §7

[6] = tested on: Linseed (Linum usitatissimum); assay: Post-emergence foliar spray, herbicidal/growth regulant response, linseed; format: in vivo; settings: 168 h, foliar spray 11.2 kg/ha, 7 days, 0=no effect, 100=complete kill, read-out: herbicidal or growth regulant response index
Procedure: as §6, §7

Peas (Pisum sativum) [7] = assay: Post-emergence foliar spray, herbicidal/growth regulant response, peas; format: in vivo; settings: Lathyrus oleraceus, 168 h, foliar spray 11.2 kg/ha, 7 days, 0=no effect, 100=complete kill, read-out: herbicidal or growth regulant response index
Procedure: as §6, §7

[8] = tested on: Ryegrass (Lolium perenne); assay: Soil incorporation (attaclay/sand dust), growth regulatory or herbicidal effects, ryegrass; format: in vivo; settings: 504 h, soil incorporation 130 ppm, 21 days, 0=no effect, 100=complete kill/suppression, read-out: growth regulatory or herbicidal effect score
Description: as §1, §2, §3, §4, §5

Maize (Zea mays) = assay: Soil incorporation (attaclay/sand dust), growth regulatory or herbicidal effects, maize; format: in vivo; settings: 504 h, soil incorporation 130 ppm, 21 days, 0=no effect, 100=complete kill/suppression, read-out: growth regulatory or herbicidal effect score
Description: as §1, §2, §3, §4, §5

Peas (Pisum sativum) [9] = assay: Soil incorporation (attaclay/sand dust), growth regulatory or herbicidal effects, peas; format: in vivo; settings: Lathyrus oleraceus, 504 h, soil incorporation 130 ppm, 21 days, 0=no effect, 100=complete kill/suppression, read-out: growth regulatory or herbicidal effect score
Description: as §1, §2, §3, §4, §5

Pythium ultimum [10] = assay: Fungal growth on the surface of soil infected with damping-off disease organism; format: in vivo; settings: 6 days, 25° C., 0-8 scale
Procedure: (§8) A one week old maize meal/sand culture of the damping-off disease organism Pythium ultimum was thoroughly mixed by hand with clean sterile John Innes No. 1 potting compost in the ratio of 3 kg culture to 12 liters of soil. The infected soil was then left for approximately 18 hours before use. Each of the compounds listed below was ground together with a wetting agent, Tween 20 (1% of final volume), until a solution or fine suspension was produced which was then diluted with distilled water to give 160 ml of solution containing 1500, 500, 150 or 50 ppm active ingredient. 15 ml aliquots of this solution were added to 75 g portions of the soil infected with Pythium ultimum which were contained in small plastic cartons, 60 mm diameter×55 mm high. Fifteen cabbage seeds, variety Flower of Spring, were placed in a circular depression in the treated infected soil, recovered, and the whole sealed with a plastic cap. The cartons were then placed in a constant temperature room at 25° C.±1° C. Four replications per treatment were made with one additional treatment where seeds were sown in soil which was chemically treated only, i.e. there was no infection. This latter treatment was included to measure the direct effect of the chemical on the germination of the seed. After six days the cartons were removed from the controlled temperature chamber and assessed for degree of fungal growth on the soil surface and percentage of seedling emergence. The results of both these assessments are expressed in a 0-8 scale as follows:
(§9) One week old maize meal/sand culture of the damping-off disease organism Pythium ultimum was thoroughly mixed by hand with clean sterile John Innes No. 1 potting compost in the ratio of 3 kg culture to 12 liters of soil. This infected soil was then left for approximately 18 hours before use. The compounds listed in the Table below were each ground with the wetting agent Tween 20 (1% of final volume), until a solution or fine suspension was produced, which was then diluted with distilled water to give 160 ml of solution containing 1500 or 500 parts per million (ppm) active ingredient. 15 ml aliquots of this solution were added to 75 g portions of the soil infected with Pythium ultimum which were contained in small plastic cartons, 60 mm diameter×55 mm high.
(§10) Fifteen cabbage seeds, variety Flower of Spring, were placed in a circular depression in the treated infected soil, recovered, and the whole sealed with a plastic cap. The cartons were then placed in a constant temperature room at 25° C.±1° C. Four replications per treatment were made, with one additional treatment where seeds were sown in soil which was chemically treated only, i.e. there was no infection. This latter treatment was included to measure the direct effect of the chemical on the germination of the seed.
(§11) After six days, the cartons were removed from the controlled temperature chamber and assessed for degree of fungal growth on the soil surface and percentage of seedling emergence. The results of both these assessments are expressed in a 0-8 scale as follows:
(§12) N-(2-oxopropyl)-3',4'-dimethyl-methanesulphonanilide was tested at a dose rate of 300 ppm in the test described in Examples 233 and 234. It gave a mycelial control score of 0 and a germination score of 3 whereas the untreated samples gave a score of 0 for both.

Pythium ultimum [11] = assay: Cabbage seedling emergence in soil infected with Pythium ultimum; format: in vivo, Pythium ultimum (on cabbage, variety Flower of Spring); settings: 6 days, 25° C., 0-8 scale
Procedure: as §8, §9, §10, §11, §12

[12] = tested on: potato blight Phytophthora infestans; format: in vivo; settings: 5 days, controls less than 5%

Row | SMILES | pest or weed control at 130 µg/mL [1] [%] | pest or weed control at 11200 g/ha (Mustard (Sinapis alba) [2]) [%] | plant injury at 11200 g/ha (Oat (Avena sativa)) [%] | pest or weed control at 130 µg/mL (Mustard (Sinapis alba) [3]) [%] | plant injury at 130 µg/mL (Oats (Avena sativa)) [%] | pest or weed control at 11200 g/ha [4] [%] | plant injury at 11200 g/ha [5] [%] | pest or weed control at 11200 g/ha [6] [%] | pest or weed control at 11200 g/ha (Peas (Pisum sativum) [7]) [%] | pest or weed control at 130 µg/mL [8] [%] | plant injury at 130 µg/mL (Maize (Zea mays)) [%] | pest or weed control at 130 µg/mL (Peas (Pisum sativum) [9]) [%] | Mycelial Control Score (Pythium ultimum [10]; 30 ppm) | Mycelial Control Score (Pythium ultimum [10]; 100 ppm) | Mycelial Control Score (Pythium ultimum [10]; 300 ppm) | Germination Score (Pythium ultimum [11]; 30 ppm) | Germination Score (Pythium ultimum [11]; 100 ppm) | Germination Score (Pythium ultimum [11]; 300 ppm) | % Control, potato blight ([12]; 2000 ppm) [%] | % Control, potato blight ([12]; 500 ppm) [%]
1 | CCOC(=O)C(C)N(c1ccccc1Cl)S(C)(=O)=O (stereo not shown) [Example 25] | 50 | 80 | 20 | 100 | 20 | 0 | 30 | 20 | 5 | 0 | 40 | 5 | – | – | – | – | – | – | – | –
2 | CCOC(=O)C(C)N(c1c(C)cccc1C)S(=O)(=O)CC (stereo not shown) [Example 26, N-(1-[ethoxycarbonyl]ethyl)-2',6'-dimethyl-ethanesulphonanilide] | 100 | 100 | 40 | 100 | 100 | 40 | 90 | 100 | 5 | 100 | 100 | 100 | 0 (<20% inhibition) | 0 (<20% inhibition) | 0 (<20% inhibition) | 3 (45-54% inhibition) | 4 (55-64% inhibition) | 4 (55-64% inhibition) | – | –
3 | CCCCS(=O)(=O)N(c1c(C)cccc1C)C(C)C(=O)OCC (stereo not shown) [Example 27] | 100 | 100 | 30 | 100 | 100 | 20 | 90 | 70 | 5 | 100 | 100 | 20 | – | – | – | – | – | – | – | –
4 | CCc1ccccc1N(C(C)C(=O)N1CCOCC1)S(C)(=O)=O (stereo not shown) [Example 41] | – | – | – | – | – | – | – | – | – | – | – | – | – | – | – | – | – | – | 93 | –
5 | Cc1cccc(C)c1N(CC#N)S(C)(=O)=O [Example 46] | 90 | – | – | 100 | 70 | – | – | – | – | 80 | 30 | 20 | – | – | – | – | – | – | 56 | –
6 | CCCS(=O)(=O)N(CC#N)c1ccc(Cl)c(Cl)c1 [Example 132] | – | – | – | – | – | – | – | – | – | – | – | – | – | – | – | – | – | – | 76 | 59
